One test concerns the target T1, NO synthase (Rattus norvegicus, UniProt P29476).
T1 construct: the supernatant was then removed by decantation and frozen in portions at −80° C; from tissue; host or cells: rat cerebellum, 20,000 g supernatant of homogenate
As to the kind of experiment: HTS-NOS assay (NOS assay): conversion of radioactive arginine, cation-exchanger filter plate. Type of test: biochemical. Conditions: 10 μM. Summed up: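 Percent inhibition was derived by comparing remaining radioactive arginine with compound-free controls. Arginine retained on phosphate cation-exchanger filters was counted after citrulline washout, following a 5-60 min room-temperature (25 °C) reaction of labelled arginine, NADPH-containing medium and rat cerebellar homogenate supernatant.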
`CC(=O)N(c1c(-c2ccccc2C(F)(F)F)nc2cc(C)ccn12)C1CCCCC1` [Example 164, N-cyclohexyl-N-[7-methyl-2-(2-trifluorO-methyl-phenyl)-imidazo[1,2-a]pyridin-3-yl]-acetamide]: the “HTS-NOS assay: % inhibition (10 μM)” value is recorded as 61%. On the same count and under the same terms, then `CC(=O)OCc1ccc(-c2nc3cc(C)ccn3c2N(C(C)=O)C2CCCCC2)o1` [Example 167, acetic acid 5-[3-(acetyl-cyclohexyl-amino)-7-methyl-imidazo[1,2-a]pyridin-2-yl]-furan-2-yl methyl ester], with 68%.

The test is the same for the next values; noted with them: read-out: HTS-NOS assay: % inhibition (10 μM).
For the compound `CC(=O)N(c1c(-c2ccncc2)nc2cc(C)ccn12)C1CCCCC1` [Example 163, N-cyclohexyl-N-(7-methyl-2-pyridin-4-yl-imidazo[1,2-a]pyridin-3-yl)-acetamide], the inhibition at 10 µM turned out to be 63%. Still for that read-out and setting: for `CC(=O)N(c1c(-c2ccco2)nc2c(Br)cc(Br)cn12)C(C)(C)CC(C)(C)C` [Example 165, N-(6,8-dibromo-2-furan-2-yl-imidazo[1,2-a]pyridin-3-yl)-N-(1,1,3,3-tetramethylbutyl)-acetamide] the value was 67%. With `CC(=O)N(c1c(-c2ccncc2)nc2cc(C)ccn12)C(C)(C)CC(C)(C)C` [Example 166, N-(7-methyl-2-pyridin-4-yl-imidazo[1,2-a]pyridin-3-yl)-N-(1,1,3,3-tetramethylbutyl)-acetamide], the inhibition at 10 µM was 61%.

Regarding `CC(=O)N(c1c(-c2cccnc2)nc2cc(C)ccn12)C(C)(C)CC(C)(C)C` [Example 168, N-(7-methyl-2-pyridin-3-yl-imidazo[1,2-a]pyridin-3-yl)-N-(1,1,3,3-tetramethylbutyl)-acetamide], the inhibition at 10 µM was 56%. On the same count and under the same terms, for `CC(=O)N(c1c(C)cccc1C)c1c(-c2cccc(Cl)c2Cl)nc2cc(C)cc(C)n12` [Example 169, N-[2-(2,3-dichloro-phenyl)-5,7-dimethyl-imidazo[1,2-a]pyridin-3-yl]-N-(2,6-dimethyl-phenyl)-acetamide] the value was 57%. As to `CC(=O)N(c1c(-c2ccc(C)o2)nc2cc(C)cc(C)n12)C1CCCCC1` [Example 170, N-cyclohexyl-N-[5,7-dimethyl-2-(5-methyl-furan-2-yl)-imidazo[1,2-a]pyridin-3-yl]-acetamide], the inhibition at 10 µM worked out at 65%. In the case of `CCCCN(C(C)=O)c1c(-c2cccc(OC)c2OC)nc2cc(C)cc(C)n12` [Example 171, N-butyl-N-[2-(2,3-dimethoxy-phenyl)-5,7-dimethyl-imidazo[1,2-a]pyridin-3-yl]-acetamide], the inhibition at 10 µM was determined as 63%. Still for that read-out and setting: for `COc1ccccc1-c1nc2cc(C)cc(C)n2c1N(C(C)=O)C(C)(C)CC(C)(C)C` [Example 172, N-[2-(2-methoxy-phenyl)-5,7-dimethyl-imidazo[1,2-a]pyridin-3-yl]-N-(1,1,3,3-tetramethyl-butyl)-acetamide] the value was 62%; for `CC(=O)N(c1c(-c2ccc([N+](=O)[O-])o2)nc2cc(C)cc(C)n12)C1CCCCC1` [Example 173, N-cyclohexyl-N-[5,7-dimethyl-2-(5-nitro-furan-2-yl)-imidazo[1,2-a]pyridin-3-yl]-acetamide], 67%.

For `COC(=O)CN(C(C)=O)c1c(C)nc2cc(C)ccn12` [Example 174, [acetyl-(2,7-dimethyl-imidazo[1,2-a]pyridin-3-yl)-amino]-acetic acid methyl ester], the inhibition at 10 µM turned out to be 68%. Same read-out and setting: for `CC(=O)N(c1c(C)nc2cc(C)cc(C)n12)C1CCCCC1` [Example 175, N-cyclohexyl-N-(2,5,7-trimethyl-imidazo[1,2-a]pyridin-3-yl)-acetamide] the value was 52%; for `CC(=O)N(c1c(-c2ccc(C(=O)O)s2)nc2ccccn12)C(C)(C)CC(C)(C)C` [Example 176, 5-{3-[acetyl-(1,1,3,3-tetramethyl-butyl)-amino]-imidazo[1,2-a]pyridin-2-yl}-thiophene-2-carboxylic acid], 50%; for `CC(=O)N(c1c(-c2ccc(Cl)cc2Cl)nc2cc(C)cc(C)n12)C(C)(C)CC(C)(C)C` [Example 177, N-[2-(2,4-dichloro-phenyl)-5,7-dimethyl-imidazo[1,2-a]pyridin-3-yl]-N-(1,1,3,3-tetramethyl-butyl)-acetamide], 67%.

Turning to `CC(=O)N(c1c(-c2ccc([N+](=O)[O-])o2)nc2cc(C)ccn12)C1CCCCC1` [Example 178, N-cyclohexyl-N-[7-methyl-2-(5-nitro-furan-2-yl)-imidazo[1,2-a]pyridin-3-yl]-acetamide], the inhibition at 10 µM stood at 64%. For `CC(=O)N(c1c(C)cccc1C)c1c(C(C)(C)C)nc2cc(C)cc(C)n12` [Example 179, N-(2-tert-butyl-5,7-dimethyl-imidazo[1,2-a]pyridin-3-yl)-N-(2,6-dimethylphenyl)-acetamide], the inhibition at 10 µM came out at 60%. As for `COc1ccccc1-c1nc2cc(C)cc(C)n2c1N(C(C)=O)c1c(C)cccc1C` [Example 180, N-(2,6-dimethyl-phenyl)-N-[2-(2-methoxy-phenyl)-5,7-dimethyl-imidazo[1,2-a]-pyridin-3-yl]-acetamide], the inhibition at 10 µM was found to be 54%. For `CC(=O)N(c1c(-c2cccc(O)c2)nc2cc(C)cc(C)n12)C(C)(C)CC(C)(C)C` [Example 181, N-[2-(3-hydroxy-phenyl)-5,7-dimethyl-imidazo[1,2-a]pyridin-3-yl]-N-(1,1,3,3-tetramethyl-butyl)-acetamide], the inhibition at 10 µM is 60%. For `CC(=O)N(c1c(C)cccc1C)c1c(-c2ccccc2F)nc2cc(C)cc(C)n12` [Example 182, N-(2,6-dimethyl-phenyl)-N-[2-(2-fluoro-phenyl)-5,7-dimethyl-imidazo[1,2-a]-pyridin-3-yl]-acetamide], the inhibition at 10 µM turned out to be 53%. On the same count and under the same terms, then `CC(=O)N(c1c(-c2ccc(C(=O)O)s2)nc2cccc(C)n12)C(C)(C)C` [Example 183, 5-[3-(acetyl-tert-butyl-amino)-5-methyl-imidazo[1,2-a]pyridin-2-yl]-thiophene-2-carboxylic acid], with 50%; and `COc1ccccc1-c1nc2cc(C)ccn2c1N(C(C)=O)c1c(C)cccc1C` [Example 184, N-(2,6-dimethyl-phenyl)-N-[2-(2-methoxy-phenyl)-7-methyl-imidazo[1,2-a]-pyridin-3-yl]-acetamide], with 51%.

Turning to `CC(=O)N(c1c(-c2ccc(C)cc2)nc2cc(C)ccn12)C(C)(C)CC(C)(C)C` [Example 185, N-(7-methyl-2-p-tolyl-imidazo[1,2-a]pyridin-3-yl)-N-(1,1,3,3-tetramethyl-butyl)-acetamide], the inhibition at 10 µM is 55%. For `CC(=O)N(c1c(-c2ccc(C(=O)O)o2)nc2cc(C)ccn12)C(C)(C)CC(C)(C)C` [Example 186, 5-{3-[acetyl-(1,1,3,3-tetramethyl-butyl)-amino]-7-methyl-imidazo[1,2-a]pyridin-2-yl}-furan-2-carboxylic acid], the inhibition at 10 µM stood at 65%. Consider `CC(=O)N(c1c(-c2cccnc2)nc2cc(C)ccn12)C1CCCCC1` [Example 187, N-cyclohexyl-N-(7-methyl-2-pyridin-3-yl-imidazo[1,2-a]pyridin-3-yl)-acetamide], for which the inhibition at 10 µM stood at 67%. For `CC(=O)N(c1c(-c2ccc(C3OCCO3)o2)nc2cc(C)cc(C)n12)C(C)(C)CC(C)(C)C` [Example 188, N-[2-(5-[1,3]dioxolan-2-yl-furan-2-yl)-5,7-dimethyl-imidazo[1,2-a]pyridin-3-yl]-N-(1,1,3,3-tetramethyl-butyl)-acetamide], the inhibition at 10 µM is 50%. In the case of `CC(=O)N(c1c(C)cccc1C)c1c(-c2cc3ccccc3o2)nc2cc(C)cc(C)n12` [Example 189, N-(2-benzofuran-2-yl-5,7-dimethyl-imidazo[1,2-a]pyridin-3-yl)-N-(2,6-dimethylphenyl)-acetamide], the inhibition at 10 µM was determined as 63%.

On to `CC(=O)N(c1c(-c2ccco2)nc2cc(C)ccn12)C(C)(C)C` [Example 190, N-tert-butyl-N-(2-furan-2-yl-7-methyl-imidazo[1,2-a]pyridin-3-yl)-acetamide], for which the inhibition at 10 µM stood at 69%.

Turning to `CC(=O)N(c1c(-c2ccccn2)nc2cc(C)ccn12)C(C)(C)C` [Example 191, N-tert-butyl-N-(7-methyl-2-pyridin-2-yl-imidazo[1,2-a]pyridin-3-yl)-acetamide], the inhibition at 10 µM came to 57%. Turning to `CC(=O)N(c1c(-c2cccnc2)nc2cc(C)cc(C)n12)C1CCCCC1` [Example 192, N-cyclohexyl-N-(5,7-dimethyl-2-pyridin-3-yl-imidazo[1,2-a]pyridin-3-yl)-acetamide], the inhibition at 10 µM amounted to 72%. Take `CC(=O)N(c1c(-c2cccc(Cl)c2Cl)nc2cc(C)cc(C)n12)C(C)(C)CC(C)(C)C` [Example 193, N-[2-(2,3-dichloro-phenyl)-5,7-dimethyl-imidazo[1,2-a]pyridin-3-yl]-N-(1,1,3,3-tetramethyl-butyl)-acetamide]: the inhibition at 10 µM came to 55%.

In the case of `COc1cccc(-c2nc3cc(C)cc(C)n3c2N(C(C)=O)C(C)(C)CC(C)(C)C)c1OC` [Example 194, N-[2-(2,3-dimethoxy-phenyl)-5,7-dimethyl-imidazo[1,2-a]pyridin-3-yl]-N-(1,1,3,3-tetramethyl-butyl)-acetamide], the inhibition at 10 µM was determined as 59%. For the compound `CC(=O)N(c1c(C)cccc1C)c1c(-c2cccc(Oc3ccc(Cl)cc3)c2)nc2ccccn12` [Example 195, N-{2-[3-(4-chloro-phenoxy)-phenyl]-imidazo[1,2-a]pyridin-3-yl}-N-(2,6-dimethyl-phenyl)-acetamide], the inhibition at 10 µM is 54%.

As for `CC(=O)N(c1c(-c2ccc(C3OCCO3)o2)nc2cc(C)ccn12)C(C)(C)CC(C)(C)C` [Example 196, N-[2-(5-[1,3]dioxolan-2-yl-furan-2-yl)-7-methyl-imidazo[1,2-a]pyridin-3-yl]-N-(1,1,3,3-tetramethyl-butyl)-acetamide], the inhibition at 10 µM stood at 54%.

The values are drawn from patent US20040023972A1, “Use of substituted imidazo[1,2-a]-pyridin-, -pyrimidin-and-pyrazin-3-yl-amine derivatives in the preparation of medicaments for inhibiting NOS” (Gruenenthal GmbH, priority 2000, published 2004).
